Data taken from PubChem BioAssay AID330 (DTP/NCI, 2004).
Values joined by “and” are separate entries in the source; they are usually repeats but may differ in a detail not shown here. Identical values can stand only once. Toxic doses and inconclusive results are not listed.

Test system: P388 leukemia ip, CD2F1 mice, survival T/C
Experiment: NCI In Vivo Anticancer Drug Screen. Data for tumor model P388 Leukemia (intraperitoneal) in CD2F1 (CDF1) mice
Settings: endpoint: median survival time, higher = longer survival
Method in brief: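 Mice carrying the transplanted tumor received test compound or vehicle. Survival was recorded in each group, and the value is the treated-group measurement divided by that of the vehicle-treated control group.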

[1] = dose: 60.0 mg/kg/injection, schedule: Q01DX005 (ip), vehicle: saline with Tween-80
[2] = dose: 120.0 mg/kg/injection, schedule: Q01DX005 (ip), vehicle: saline with Tween-80
[3] = dose: 240.0 mg/kg/injection, schedule: Q01DX005 (ip), vehicle: saline with Tween-80

Cc1ccc(N2C(=O)CCSC2=S)cc1Cl
T/C (dose: 50.0 mg/kg/injection, schedule: Q01DX009 (ip), vehicle: Klucel (hydroxypropylcellulose) (HPC)): 115 % of control | T/C (dose: 50.0 mg/kg/injection, schedule: Q01DX009 (ip), vehicle: suspension in saline): 87 % of control | T/C (dose: 100.0 mg/kg/injection, schedule: Q01DX009 (ip), vehicle: Klucel (hydroxypropylcellulose) (HPC)): 114 % of control and 122 % of control | T/C (dose: 100.0 mg/kg/injection, schedule: Q01DX009 (ip), vehicle: suspension in saline): 90 % of control | T/C (dose: 200.0 mg/kg/injection, schedule: Q01DX009 (ip), vehicle: Klucel (hydroxypropylcellulose) (HPC)): 86 % of control | T/C (dose: 200.0 mg/kg/injection, schedule: Q01DX009 (ip), vehicle: suspension in saline): 99 % of control

COc1cccc2cc3c(NCCCN(C)C)nnc(NCCCN(C)C)c3cc12
T/C (dose: 7.5 mg/kg/injection, schedule: Q01DX005 (ip), vehicle: saline): 105 % of control | T/C (dose: 15.0 mg/kg/injection, schedule: Q01DX005 (ip), vehicle: saline): 98 % of control

Cc1cn(C2CC(F)C(CO)O2)c(=O)[nH]c1=O (stereo not drawn)
T/C (dose: 12.5 mg/kg/injection, schedule: Q01DX009 (ip), vehicle: saline): 106 % of control | T/C (dose: 25.0 mg/kg/injection, schedule: Q01DX009 (ip), vehicle: saline): 101 % of control and 103 % of control | T/C (dose: 50.0 mg/kg/injection, schedule: Q01DX009 (ip), vehicle: saline): 100 % of control and 110 % of control | T/C (dose: 100.0 mg/kg/injection, schedule: Q01DX009 (ip), vehicle: saline): 101 % of control and 119 % of control | T/C (dose: 200.0 mg/kg/injection, schedule: Q01DX009 (ip), vehicle: saline): 101 % of control | T/C (dose: 400.0 mg/kg/injection, schedule: Q01DX009 (ip), vehicle: saline): 116 % of control

Cc1ncc([N+](=O)[O-])n1CCOc1c(Cl)cc(Cl)cc1CN(C)C1CCCCC1
T/C (dose: 3.12 mg/kg/injection, schedule: Q01DX005 (ip), vehicle: Klucel (hydroxypropylcellulose) (HPC)): 100 % of control | T/C (dose: 6.25 mg/kg/injection, schedule: Q01DX005 (ip), vehicle: Klucel (hydroxypropylcellulose) (HPC)): 98 % of control | T/C (dose: 12.5 mg/kg/injection, schedule: Q01DX005 (ip), vehicle: Klucel (hydroxypropylcellulose) (HPC)): 105 % of control

CC(CN=C(CC(=O)c1ccccc1)c1ccccc1)N=C(CC(=O)c1ccccc1)c1ccccc1.[Cu] (stereo not drawn)
T/C (dose: 50.0 mg/kg/injection, schedule: Q01DX009 (ip), vehicle: saline with Tween-80): 100 % of control | T/C (dose: 100.0 mg/kg/injection, schedule: Q01DX009 (ip), vehicle: saline with Tween-80): 106 % of control | T/C (dose: 200.0 mg/kg/injection, schedule: Q01DX009 (ip), vehicle: saline with Tween-80): 91 % of control

CN(C)c1ccc(/C=C/C=C2C(=O)NC(=S)NC2=O)cc1
T/C (dose: 100.0 mg/kg/injection, schedule: Q04DX002 (ip), vehicle: Klucel (hydroxypropylcellulose) (HPC)): 89 % of control | T/C (dose: 200.0 mg/kg/injection, schedule: Q04DX002 (ip), vehicle: Klucel (hydroxypropylcellulose) (HPC)): 92 % of control | T/C (dose: 400.0 mg/kg/injection, schedule: Q04DX002 (ip), vehicle: Klucel (hydroxypropylcellulose) (HPC)): 87 % of control

COc1ccc(C(=O)NCc2cccnc2)cc1C(=O)NCc1cccnc1
T/C (dose: 50.0 mg/kg/injection, schedule: Q01DX005 (ip), vehicle: saline with Tween-80): 94 % of control | T/C (dose: 100.0 mg/kg/injection, schedule: Q01DX005 (ip), vehicle: saline with Tween-80): 103 % of control | T/C (dose: 200.0 mg/kg/injection, schedule: Q01DX005 (ip), vehicle: saline with Tween-80): 99 % of control

O=C(c1ccccc1)c1ccccc1NCC(O)COc1cccc2ccccc12 (stereo not drawn)
T/C [1]: 100 % of control | T/C [2]: 92 % of control | T/C [3]: 91 % of control

CC1(C)OC(=O)C=C[C@]2(C)[C@H]3CC[C@@]4(C)[C@H](c5ccoc5)C[C@H]5O[C@]54[C@]3(C)C(=O)[C@H](O)[C@@H]12
T/C (dose: 1.25 mg/kg/injection, schedule: Q04DX003 (ip), vehicle: Klucel (hydroxypropylcellulose) (HPC)): 91 % of control | T/C (dose: 2.5 mg/kg/injection, schedule: Q04DX003 (ip), vehicle: Klucel (hydroxypropylcellulose) (HPC)): 96 % of control | T/C (dose: 5.0 mg/kg/injection, schedule: Q04DX003 (ip), vehicle: Klucel (hydroxypropylcellulose) (HPC)): 94 % of control | T/C (dose: 10.0 mg/kg/injection, schedule: Q04DX003 (ip), vehicle: Klucel (hydroxypropylcellulose) (HPC)): 98 % of control

[N-]=[N+]=Nc1ccnc2cc(F)ccc12
T/C [1]: 96 % of control | T/C [2]: 104 % of control | T/C [3]: 95 % of control

N=C(N)c1ccc(N=Nc2c(O)ccc3cc4c(N=Nc5ccc(C(=N)N)cc5)c(O)ccc4cc23)cc1
T/C (dose: 50.0 mg/kg/injection, schedule: Q01DX005 (ip), vehicle: Klucel (hydroxypropylcellulose) (HPC)): 110 % of control | T/C (dose: 100.0 mg/kg/injection, schedule: Q01DX005 (ip), vehicle: Klucel (hydroxypropylcellulose) (HPC)): 111 % of control | T/C (dose: 200.0 mg/kg/injection, schedule: Q01DX005 (ip), vehicle: Klucel (hydroxypropylcellulose) (HPC)): 110 % of control

CCCCCNC(=O)OCc1c(COC(=O)NCCCCC)c(-c2ccc(Cl)c(Cl)c2)n2c1CCC2
T/C (dose: 6.25 mg/kg/injection, schedule: Q01DX009 (ip), vehicle: distilled water + Tween-80): 113 % of control | T/C (dose: 12.5 mg/kg/injection, schedule: Q01DX009 (ip), vehicle: distilled water + Tween-80): 101 % of control and 110 % of control | T/C (dose: 25.0 mg/kg/injection, schedule: Q01DX009 (ip), vehicle: distilled water + Tween-80): 108 % of control and 116 % of control | T/C (dose: 100.0 mg/kg/injection, schedule: Q01DX009 (ip), vehicle: distilled water + Tween-80): 165 % of control
